These results are taken from patent US8071768B2, “Alkylquinoline and alkylquinazoline kinase modulators” (Janssen Pharmaceutica, N.V., priority 2005, dated 2011).

A value given as a limit tells only on which side of the number the result lay.

For this experiment, the target named is T1, TrkB (Homo sapiens, UniProt Q16620).
T1 construct: purchased Upstate 14-507M
T1 sequence (Q16620 32-822): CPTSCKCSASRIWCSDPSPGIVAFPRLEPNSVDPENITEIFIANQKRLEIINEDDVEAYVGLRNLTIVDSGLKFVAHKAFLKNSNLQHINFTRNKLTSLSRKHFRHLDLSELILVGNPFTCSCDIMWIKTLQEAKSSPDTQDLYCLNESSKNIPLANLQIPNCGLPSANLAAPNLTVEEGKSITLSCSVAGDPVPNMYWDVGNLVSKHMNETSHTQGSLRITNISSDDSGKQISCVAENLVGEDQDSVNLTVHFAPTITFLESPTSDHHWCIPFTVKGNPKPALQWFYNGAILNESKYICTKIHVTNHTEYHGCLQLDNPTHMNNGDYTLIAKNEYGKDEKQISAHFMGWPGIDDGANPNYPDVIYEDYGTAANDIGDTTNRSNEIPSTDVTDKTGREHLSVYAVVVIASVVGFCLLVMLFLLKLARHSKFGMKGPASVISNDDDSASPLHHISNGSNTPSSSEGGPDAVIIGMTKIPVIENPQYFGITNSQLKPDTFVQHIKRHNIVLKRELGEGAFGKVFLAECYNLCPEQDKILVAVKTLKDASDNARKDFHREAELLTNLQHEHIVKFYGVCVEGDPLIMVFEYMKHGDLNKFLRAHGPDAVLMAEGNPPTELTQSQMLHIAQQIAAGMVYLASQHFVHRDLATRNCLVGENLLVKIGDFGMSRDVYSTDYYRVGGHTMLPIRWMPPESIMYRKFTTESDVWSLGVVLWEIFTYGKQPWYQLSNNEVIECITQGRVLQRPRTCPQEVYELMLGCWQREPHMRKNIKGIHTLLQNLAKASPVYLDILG
Briefly: Trk B Fluorescence Polarization Kinase Assay. Type of experiment: biochemical. As to conditions: uncertainty ±10%. A digest of the protocol:
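The TrkB kinase reaction (50 nM enzyme, 20 ug/mL poly Glu4Tyr, 150 uM ATP, 5 mM MgCl2, 1% DMSO) ran 30 minutes at room temperature and was stopped with EDTA. Phosphorylation was detected by fluorescence-polarization displacement of a fluorescein phosphopeptide from an anti-phosphotyrosine antibody. IC50 came from a variable-slope sigmoidal fit of triplicates.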
In turn, `CN1CCN(CCCOc2ccc3c(C4CCN(C(=O)Nc5ccc(N6CCCC6)cc5)CC4)ncnc3c2)CC1` [Compound 158, 4-{7-[3-(4-Methyl-piperazin-1-yl)-propoxy]-quinazolin-4-yl}-piperidine-1-carboxylic acid (4-pyrrolidin-1-yl-phenyl)-amide] displayed an IC50 of 5 µM.

Take `CN(C)CC(=O)N1CCN(c2ccc3c(C4CCN(C(=O)Nc5ccc(N6CCOCC6)cc5)CC4)ncnc3c2)CC1` [Compound 144, 4-{7-[4-(2-Dimethylamino-acetyl)-piperazin-1-yl]-quinazolin-4-yl}-piperidine-1-carboxylic acid (4-morpholin-4-yl-phenyl)-amide]: the IC50 was 14.2 µM. Next, `CN1CCC(COc2ccc3c(C4CCN(C(=O)Nc5ccc(N6CCOCC6)cc5)CC4)ncnc3c2)CC1` [Compound 94, 4-[7-(1-Methyl-piperidin-4-ylmethoxy)-quinazolin-4-yl]-piperidine-1-carboxylic acid (4-morpholin-4-yl-phenyl)-amide]: more than 42 µM; `COc1cc2ncnc(C3CCN(C(=O)Nc4ccc(C(F)(F)F)cc4)CC3)c2cc1OC` [Compound 46, 4-(6,7-Dimethoxy-quinazolin-4-yl)-piperidine-1-carboxylic acid (4-trifluoromethyl-phenyl)-amide]: 18.3 µM; `CCC(C)c1ccc(NC(=O)N2CCC(c3ncnc4cc(OC)c(OC)cc34)CC2)cc1` (stereo not shown) [Compound 52, 4-(6,7-Dimethoxy-quinazolin-4-yl)-piperidine-1-carboxylic acid (4-sec-butyl-phenyl)-amide]: 1.2 µM. Next, `CCOc1ccc(NC(=O)N2CCC(c3ncnc4cc(OC)c(OC)cc34)CC2)cc1` [Compound 44, 4-(6,7-Dimethoxy-quinazolin-4-yl)-piperidine-1-carboxylic acid (4-ethoxy-phenyl)-amide]: 2.2 µM; `CN1CCCN(CCCOc2ccc3c(C4CCN(C(=O)Nc5ccc(N6CCOCC6)cc5)CC4)ncnc3c2)CC1` [Compound 125, 4-{7-[3-(4-Methyl-[1,4]diazepan-1-yl)-propoxy]-quinazolin-4-yl}-piperidine-1-carboxylic acid (4-morpholin-4-yl-phenyl)-amide]: more than 20 µM; `COc1cc2ncnc(C3CCN(C(=O)Nc4ccc(N5CCCC5=O)cc4)CC3)c2cc1OC` [Compound 57, 4-(6,7-Dimethoxy-quinazolin-4-yl)-piperidine-1-carboxylic acid [4-(2-oxo-pyrrolidin-1-yl)-phenyl]-amide]: 24.9 µM. Turning to `COc1cc2ncnc(C3CCN(C(=O)Nc4ccc(N5CCCCCC5)cc4)CC3)c2cc1OC` [Compound 70, 4-(6,7-Dimethoxy-quinazolin-4-yl)-piperidine-1-carboxylic acid (4-azepan-1-yl-phenyl)-amide], the IC50 was determined as 2.7 µM. Next, `CS(=O)(=O)NCCCOc1ccc2c(C3CCN(C(=O)Nc4ccc(N5CCOCC5)cc4)CC3)ncnc2c1` [Compound 66, 4-[7-(3-Methanesulfonylamino-propoxy)-quinazolin-4-yl]-piperidine-1-carboxylic acid (4-morpholin-4-yl-phenyl)-amide]: more than 42 µM; `COc1cc2ncnc(C3CCN(C(=O)Nc4ccc(C)cc4)CC3)c2cc1OC` [Compound 48, 4-(6,7-Dimethoxy-quinazolin-4-yl)-piperidine-1-carboxylic acid p-tolylamide]: 6.6 µM. The result for `O=C(Nc1ccc(N2CCOCC2)cc1)N1CCC(c2ncnc3cc(N4CCOCC4)ccc23)CC1` [Compound 145, 4-(7-Morpholin-4-yl-quinazolin-4-yl)-piperidine-1-carboxylic acid (4-morpholin-4-yl-phenyl)-amide] reads 21.1 µM; that for `CC(C)Oc1ccc(NC(=O)N2CCC(c3ncnc4cc(N5CCN(C)CC5)ccc34)CC2)cc1` [Compound 103, 4-[7-(4-Methyl-piperazin-1-yl)-quinazolin-4-yl]-piperidine-1-carboxylic acid (4-isopropoxy-phenyl)-amide], 0.2 µM.
